Series [1] is described as follows: Pharmacokinetic test in mice after intragastric administration. As to conditions: male, mouse, plasma, ICR mice, Oral (10 mg/kg); for AUC(0-t): read-out: Area under curve AUC0-t; for half-life: read-out: Half-life T1/2 (converted); for Cmax: read-out: Plasma concentration Cmax. It is filed as in vivo. As for the experimental part:
ICR mice were used as test animals, the plasma concentrations of the control compound HRO761 and the compounds of the present disclosure at different time points after intragastric administration were determined by LC/MS/MS method, and the pharmacokinetic characteristics of the compounds of the present disclosure in mice were studied.
ICR mice, male, 30.8 to 38.0 g, purchased from Vital River Laboratory Animal Technology Co., Ltd.
An appropriate amount of the test compound was weighed, and an appropriate amount of DMA (N,N-dimethylacetamide), 30% Solutol HS15 (30% polyethylene glycol-15 hydroxystearate), and Saline (saline) were added sequentially, the mixture was ultrasonicated and vortex mixed to prepare a 1 mg/mL dosing formulation. The ratio of DMA:30% Solutol HS15:Saline was 5:5:90 (v/v/v).
After overnight fasting, ICR mice in each test compound injection group (9 mice per group) were administered intragastrically (PO, compound dose was 10 mg/kg, administration volume was 10 mL/kg), and food was given 4 hours after administration.
About 0.1 mL of blood was collected via the orbital cavity before administration and at 0.25 h, 0.5 h, 1 h, 2 h, 4 h, 8 h, 10 h, and 24 h after administration, and whole blood samples were placed in anticoagulant tubes containing EDTA-K2. The samples were placed on ice after collection, and plasma was separated by centrifugation (centrifugation conditions: 1500 g, 10 minutes). The collected plasma was stored at -40 to -20 °C before analysis.
The content of the test compound in mouse plasma after intragastric administration was determined by LC-MS/MS.

The target of series [2] is T1, recombinant human WRN (Homo sapiens, UniProt Q14191).
T1 construct: purchased BPS 101264
T1 sequence (Q14191 whole entry): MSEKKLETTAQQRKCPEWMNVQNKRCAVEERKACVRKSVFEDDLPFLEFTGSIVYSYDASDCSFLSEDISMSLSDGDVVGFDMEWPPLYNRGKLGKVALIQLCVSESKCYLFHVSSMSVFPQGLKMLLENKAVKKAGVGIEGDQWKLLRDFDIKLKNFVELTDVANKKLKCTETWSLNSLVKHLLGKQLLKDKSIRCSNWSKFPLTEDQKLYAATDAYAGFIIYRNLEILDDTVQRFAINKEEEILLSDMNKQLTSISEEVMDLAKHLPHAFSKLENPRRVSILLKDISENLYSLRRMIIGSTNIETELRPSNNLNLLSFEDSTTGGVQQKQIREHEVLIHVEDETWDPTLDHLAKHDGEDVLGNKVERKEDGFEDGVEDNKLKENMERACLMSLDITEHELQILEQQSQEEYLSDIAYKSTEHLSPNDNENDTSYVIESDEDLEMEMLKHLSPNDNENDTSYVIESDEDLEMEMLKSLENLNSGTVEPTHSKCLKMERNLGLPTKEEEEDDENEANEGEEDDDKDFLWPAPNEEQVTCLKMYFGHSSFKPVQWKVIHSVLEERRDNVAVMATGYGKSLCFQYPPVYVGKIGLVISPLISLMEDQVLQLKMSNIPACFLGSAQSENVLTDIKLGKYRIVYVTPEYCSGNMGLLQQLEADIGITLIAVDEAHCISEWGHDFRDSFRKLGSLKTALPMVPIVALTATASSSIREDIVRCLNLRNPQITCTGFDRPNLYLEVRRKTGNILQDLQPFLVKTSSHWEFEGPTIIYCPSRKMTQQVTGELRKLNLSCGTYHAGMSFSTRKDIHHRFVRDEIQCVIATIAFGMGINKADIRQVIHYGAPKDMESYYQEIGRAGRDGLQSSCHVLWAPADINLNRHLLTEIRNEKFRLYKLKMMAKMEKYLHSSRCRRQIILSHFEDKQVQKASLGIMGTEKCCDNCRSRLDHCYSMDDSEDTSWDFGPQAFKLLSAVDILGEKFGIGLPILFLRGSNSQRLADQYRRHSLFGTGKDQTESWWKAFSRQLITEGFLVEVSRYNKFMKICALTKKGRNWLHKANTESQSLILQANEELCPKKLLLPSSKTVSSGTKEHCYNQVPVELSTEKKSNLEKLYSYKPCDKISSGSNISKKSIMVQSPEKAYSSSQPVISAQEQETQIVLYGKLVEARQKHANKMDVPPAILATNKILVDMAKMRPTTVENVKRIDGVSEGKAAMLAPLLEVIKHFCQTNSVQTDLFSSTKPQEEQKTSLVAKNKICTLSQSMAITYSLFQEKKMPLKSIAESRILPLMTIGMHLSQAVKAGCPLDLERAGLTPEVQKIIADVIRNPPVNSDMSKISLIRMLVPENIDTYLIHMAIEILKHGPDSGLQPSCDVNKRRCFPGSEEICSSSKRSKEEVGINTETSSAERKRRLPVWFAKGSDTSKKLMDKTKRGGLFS
The experiment in a line: Inhibition of WRN enzyme activity (ATPase), ADP-Glo Kinase Assay. As to conditions: WRN protein 5 nM, Flap 0.1 nM, ATP 30 µM; read-out: IC50. It is filed as biochemical. In short, it runs like this: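 Recombinant human WRN (5 nM) was preincubated with compound (1000–0.004 nM) for 15 min at room temperature. Flap26 5'-flap DNA (0.1 nM) and 30 µM ATP were then added for 10 min in Tris pH 7.5, MgCl2, NaCl, BSA, Pluronic buffer. ADP was detected by ADP-Glo luminescence, and IC50 was obtained by nonlinear regression versus a 0.1% DMSO control.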

The nature of series [3]: Metabolic stability in human liver microsomes. It is filed as in vitro ADME. As to conditions: human liver microsomes 0.5 mg mL^-1, NADPH 1 mM, 0-60 min; read-out: Liver microsomal stability t1/2 (min) Human. As to the method: (§1) The purpose of this study was to investigate the metabolic stability of the compounds of the present disclosure in human and dog liver microsomes.
(§2) The compounds were co-incubated with human (or dog) liver microsomes, and the reaction was initiated by adding coenzyme NADPH (1 mM). At 0, 5, 15, 30, and 60 minutes, 60 µL of incubation solution was removed, and 180 µL of acetonitrile containing internal standard (clopidogrel) was added to quench the reaction, the mixture was shaken for 10 seconds, centrifuged at 10000 rpm for 10 minutes, and the supernatant was taken for analysis by LC-MS/MS. The in vitro intrinsic clearance was calculated based on the elimination half-life of the test compound in the incubation system. Midazolam was used as an internal reference compound, with two parallel incubations for each. Incubation conditions are summarized in Table 6 below: Table 6 Incubation conditions for the example compounds of the present disclosure
(§3) The ratio of the peak area of analyte to internal standard (Aanalyte/AIS) was obtained from the instrument, and the remaining percentage (%Control) was calculated from the ratio of Aanalyte/AIS in non-zero time point samples to zero time samples. Ln (%Control) was plotted against incubation time and linearly fitted. The test compound clearance constant (k, min^-1) and clearance half-life (T1/2, min) were calculated using the following equations. k = −slope [formula] T1/2 = 0.693/k. [formula]

Series [4] relates to RL95-2 cells. The experiment in a line: Inhibition of RL95-2 cell proliferation (CellTiter-Glo). It is filed as cell-based. To be noted: Homo sapiens; RL95-2 cells (MSI-H), 120 hours. The procedure, abridged: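 RL95-2 (MSI-H) cells, 500/well in DMEM/F12 with 10% FBS, adhered overnight, then treated 120 h at 37 °C, 5% CO2 with compound at final 1.52-10000 nM. Viability by CellTiter-Glo luminescence. Inhibition relative to 0.1% DMSO control; IC50 from nonlinear regression of log concentration versus inhibition.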

A short description of series [5]: Metabolic stability in dog liver microsomes. It is filed as in vitro ADME. To be noted: dog liver microsomes 0.5 mg mL^-1, NADPH 1 mM, 0-60 min; read-out: Liver microsomal stability t1/2 (min) Dog. As to the method:
as §1, §2, §3

The nature of series [6]: Caco-2 bidirectional permeability and efflux ratio. It is filed as in vitro ADME. To be noted: human, Caco-2, 10 µM, 120 minutes; for efflux ratio at 120 min, 10 µM: read-out: Efflux ratio Papp(B-A)/ Papp(A-B); for Papp A→B at 120 min, 10 µM: A to B; for Papp B→A at 120 min, 10 µM: B to A. As to the method:
(§4) The bidirectional permeability and efflux ratio of the example compounds and control compound were determined in a Caco-2 monolayer cell model.
(§5) Caco-2 cells (cultured at Shanghai Medicilon Inc.) were recovered in the experiment. After the cells were in good condition, they were digested, and the cell density was adjusted (1 × 10^5 cells/cm^2). Caco-2 cells were seeded into Transwell chambers and placed in 24-well plates for cultivation. After continuous cultivation for about 21 days, TEER values were measured one day before the experiment to ensure formation of a confluent cell monolayer for transport experiments (TEER > 200 Ω·cm^2). Test compounds were diluted from 10 mM stock solutions to 10 µM concentration using transport buffer (HBSS containing BSA) (metoprolol and atenolol were set as positive compounds). For efflux determination, 0.6 mL of compound dilution solution was added to the outer well (side B), and 0.4 mL of blank transport buffer was added to the Transwell chamber. For absorption determination, 0.4 mL of transport buffer containing compound was added to the Transwell chamber, and 0.6 mL of blank transport buffer was added to the outer side. After setup, the 24-well plates were cultivated at 37 °C and 5% CO2 with 95% relative humidity for 120 minutes, and permeability of test compounds from A to B direction or B to A direction was measured, respectively, with two duplicate wells set for each direction. Liquid in Transwell chambers and 24-well plates was collected separately, 60 µL each, and 180 µL of acetonitrile (containing internal standard) was added, vortexed for 1 min, then centrifuged at 4 °C, 10000 rpm for 10 min. The supernatant was taken, filtered through a 0.22 µm membrane, and placed in vials for testing. The content of the compounds in each Transwell chamber and 24-well plate was determined by liquid chromatography-tandem mass spectrometry (LC-MS/MS). Table 4 Permeability data of compounds of the present disclosure

In series [7] the test system is Caco-2 monolayer cell model. Description: Caco-2 bidirectional permeability and efflux ratio. To be noted: Caco-2, conclusion. The series is classed as in vitro ADME. As for the experimental part:
as §4, §5

Series [8] deals with SW48 cells. Description: Inhibition of SW48 cell proliferation (CellTiter-Glo). It is filed as cell-based. To be noted: Homo sapiens; SW48 cells (MSI-H), 120 hours. In short, it runs like this: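 SW48 (MSI-H) cells in L-15 with 10% FBS were seeded at 500 per well, cultured overnight at 37 °C, then exposed to compound at final concentrations of 10000 nM to 1.52 nM for 120 h. Viability was read by CellTiter-Glo luminescence, with inhibition relative to 0.1% DMSO. IC50 from nonlinear regression of log concentration versus inhibition.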

In the case of `CCc1c(N2CCN(C(=O)c3ncnc(C)c3O)CC2)c(=O)n2nc(-c3ccc4occc4c3)nc2n1CC(=O)Nc1ccc(C(F)(F)F)cc1Cl` [Example 67, 2-(2-(benzofuran-5-yl)-5-ethyl-6-(4-(5-hydroxy-6-methylpyrimidine-4-carbonyl)piperazin-1-yl)-7-oxo-[1,2,4]triazolo[1,5-a]pyrimidin-4(7H)-yl)-N-(2-chloro-4-(trifluoromethyl)phenyl)acetamide], in series [1], the AUC(0-t) turned out to be 83400 ng·h/mL. Further, the half-life in series [1] is 0.66 h; in series [3], 657 min; in series [5], 318 min. Also, the Cmax in series [1] stood at 31400 ng/mL. Further, the 50% inhibitory concentration (IC50) in series [2] is less than 1 nM; in series [4], 1 to 100 nM.

For `CCc1c(N2CCN(C(=O)c3ncnc(C)c3O)CC2)c(=O)n2nc(-c3ccc4ccoc4c3)nc2n1CC(=O)Nc1ccc(C(F)(F)F)cc1Cl` [Example 68, 2-(2-(benzofuran-6-yl)-5-ethyl-6-(4-(5-hydroxy-6-methylpyrimidine-4-carbonyl)piperazin-1-yl)-7-oxo-[1,2,4]triazolo[1,5-a]pyrimidin-4(7H)-yl)-N-(2-chloro-4-(trifluoromethyl)phenyl)acetamide], in series [6], the efflux ratio at 120 min, 10 µM stood at 1.1; the apical-to-basolateral permeability (Papp A→B) at 120 min, 10 µM came out at 4.64 ×10⁻⁶ cm/s; the apparent permeability from basolateral to apical (Papp B→A) at 120 min, 10 µM came to 5.09 ×10⁻⁶ cm/s. Moreover, in series [7], the “efflux (in words)” value is reported as “no significant efflux” and the “permeability (in words)” value is given as “moderate permeability”. Also, in series [1], the AUC(0-t) was 98900 ng·h/mL, the half-life was 2.41 h and the Cmax amounted to 17300 ng/mL. Besides, the half-maximal inhibitory concentration (IC50) in series [2] was less than 1 nM. In addition, in series [4], the IC50 was in the range of 1 to 100 nM.

Consider `CCc1c(N2CCN(C(=O)c3ncnc(C)c3O)CC2)c(=O)n2nc(-c3ccc4c(c3)CCO4)nc2n1CC(=O)Nc1ccc(C(F)(F)F)cc1Cl` [Example 76, N-(2-chloro-4-(trifluoromethyl)phenyl)-2-(2-(2,3-dihydrobenzofuran-5-yl)-5-ethyl-6-(4-(5-hydroxy-6-methylpyrimidine-4-carbonyl)piperazin-1-yl)-7-oxo-[1,2,4]triazolo[1,5-a]pyrimidin-4(7H)-yl)acetamide], for which the concentration for half-maximal inhibition (IC50) in series [2] and in series [4] was 1 to 100 nM each time. Further, the values for the half-life in series [3] and in series [5] were 999 min and 200 min, respectively.

Compound `CCc1c(N2CCN(C(=O)c3ncnc(C)c3O)CC2)c(=O)n2nc(-c3ccc4c(ccn4C)c3)nc2n1CC(=O)Nc1ccc(C(F)(F)F)cc1Cl` [Example 103, N-(2-chloro-4-(trifluoromethyl)phenyl)-2-(5-ethyl-6-(4-(5-hydroxy-6-methylpyrimidine-4-carbonyl)piperazin-1-yl)-2-(1-methyl-1H-indol-5-yl)-7-oxo-[1,2,4]triazolo[1,5-a]pyrimidin-4(7H)-yl)ac etamide] yielded an IC50 in series [8] of 1 to 100 nM. Further, in series [1], the AUC(0-t) came to 24300 ng·h/mL, the half-life is 2.75 h and the Cmax turned out to be 7120 ng/mL. Also, the half-maximal inhibitory concentration (IC50) in series [2] lay in the range of 1 to 100 nM. This compound had an IC50 in series [4] of 1 to 100 nM.

For `Cc1ncnc(C(=O)N2CCN(c3c(C)n(CC(=O)Nc4ccc(C(F)(F)F)cc4Cl)c4nc(-c5ccc6c(c5)CCO6)nn4c3=O)CC2)c1O` [Example 106, N-(2-chloro-4-(trifluoromethyl)phenyl)-2-(2-(2,3-dihydrobenzofuran-5-yl)-6-(4-(5-hydroxy-6-methylpyrimidine-4-carbonyl)piperazin-1-yl)-5-methyl-7-oxo-[1,2,4]triazolo[1,5-a]pyrimidin-4(7H) -yl)acetamide], the IC50 in series [8], in series [2] and in series [4] was 1 to 100 nM in each case. In addition, the AUC(0-t) in series [1] worked out at 330000 ng·h/mL. For the same compound, the half-life in series [1] is 4.85 h. Also, the Cmax in series [1] worked out at 45000 ng/mL.

Consider `CCc1c(N2CCN(C(=O)c3ncnc(C)c3O)CC2)c(=O)n2nc(-c3ccc4ncsc4c3)nc2n1CC(=O)Nc1ccc(C(F)(F)F)cc1Cl` [Example 125, 2-(2-(benzo[d]thiazol-6-yl)-5-ethyl-6-(4-(5-hydroxy-6-methylpyrimidine-4-carbonyl)piperazin-1-yl)-7-oxo-[1,2,4]triazolo[1,5-a]pyrimidin-4(7H)-yl)-N-(2-chloro-4-(trifluoromethyl)phenyl)acetamide], for which the IC50 in series [8] is 1 to 100 nM; in series [2], less than 1 nM; in series [4], 1 to 100 nM. Moreover, the half-life in series [3] was found to be 705 min; in series [5], 182 min.

As to `CCc1c(N2CCN(C(=O)c3ncnc(C)c3O)CC2)c(=O)n2nc(C3=CCOCC3)nc2n1CC(=O)Nc1ccc(C(F)(F)F)cc1Cl` [HRO761, reference compound], in series [6], the efflux ratio at 120 min, 10 µM came to 3.65; the apparent permeability from apical to basolateral (Papp A→B) at 120 min, 10 µM is 3.96 ×10⁻⁶ cm/s; the Papp B→A at 120 min, 10 µM was found to be 14.5 ×10⁻⁶ cm/s. In series [7], the “efflux (in words)” value is recorded as “apparent potential efflux properties” and the “permeability (in words)” value is “moderate permeability”. For the same compound, in series [1], the AUC(0-t) came out at 15600 ng·h/mL, the half-life is 2.81 h and the Cmax was found to be 7010 ng/mL. For the same compound, the half-life in series [3] came out at 483 min. Also, in series [5], the half-life is 175 min.

The values are drawn from patent EP4800015A1, “AZABICYCLO DERIVATIVE AND PREPARATION METHOD THEREFOR, AND USE” (Zhejiang Hisun Pharmaceutical Co., Ltd., priority 2023, dated 2025).
